Laboratory results from ChEMBL document CHEMBL3244131, “Synthesis of cephalosporin-4-aldehydes” (1977).
≈ marks a conversion by molar mass, not a printed value.

Key:
Format in all cases: functional
Klebsiella pneumoniae = assay: Antimicrobial activity against Klebsiella pneumoniae ATCC 10031-2 by threefold dilution agar inclusion method
Proteus vulgaris = assay: Antimicrobial activity against Proteus vulgaris ATCC 9484 by threefold dilution agar inclusion method
Staphylococcus aureus = assay: Antimicrobial activity against Staphylococcus aureus ATCC 6538P by threefold dilution agar inclusion method
Streptococcus pyogenes = assay: Antimicrobial activity against Streptococcus pyogenes ATCC 8668 by threefold dilution agar inclusion method
Escherichia coli = assay: Antimicrobial activity against Escherichia coli ATCC 25922-1 by threefold dilution agar inclusion method

| SMILES | MIC (Klebsiella pneumoniae) [µg/mL] | MIC (Proteus vulgaris) [µg/mL] | MIC (Staphylococcus aureus) [µg/mL] | MIC (Streptococcus pyogenes) [µg/mL] | MIC (Escherichia coli) [µg/mL] |
| --- | --- | --- | --- | --- | --- |
| CC(=O)OCC1=C(C=O)N2C(=O)[C@@H](NC(=O)Cc3cccs3)[C@H]2SC1 | > 100 | > 100 | 30 (≈ 78.9 µM) | 30 (≈ 78.9 µM) | > 100 |
| CC(=O)OCC1=C(C2OCCO2)N2C(=O)[C@@H](NC(=O)Cc3cccs3)[C@H]2SC1 | > 100 | > 100 | > 100 | > 100 | > 100 |
| CC(=O)OCC1=C(/C=N/O)N2C(=O)[C@@H](NC(=O)Cc3cccs3)[C@H]2SC1 | > 100 | > 100 | > 100 | > 100 | > 100 |
| CO/N=C/C1=C(COC(C)=O)CS[C@@H]2[C@H](NC(=O)Cc3cccs3)C(=O)N12 | > 100 | > 100 | > 100 | > 100 | > 100 |
| CC(=O)OCC1=C(/C=N/NC(N)=O)N2C(=O)[C@@H](NC(=O)Cc3cccs3)[C@H]2SC1 | > 100 | > 100 | > 100 | > 100 | > 100 |
| CC(=O)OCC1=C(/C=N/OCC(=O)O)N2C(=O)[C@@H](NC(=O)Cc3cccs3)[C@H]2SC1 | > 100 | > 100 | > 100 | > 100 | > 100 |
| CC(=O)OCC1=C(/C=C/C(=O)[O-])N2C(=O)[C@@H](NC(=O)Cc3cccs3)[C@H]2SC1.[Na+] | > 100 | > 100 | > 100 | > 100 | > 100 |
| CC(=O)OCC1=C(C(=O)O)N2C(=O)[C@@H](NC(=O)Cc3cccs3)[C@H]2SC1 [CEPHALOTHIN] | 1 (≈ 2.52 µM) | > 100 | 0.3 (≈ 0.757 µM) | < 0.1 | 30 (≈ 75.7 µM) |
